What was measured:
[1] = biological target: Bn-VAKGL pentapeptide of filamin A (FLNA) (Homo sapiens, UniProt P21333); assay: FITC-NLX-based FLNA screening assay (FLNA peptide binding assay); conditions: 10 nM FITC-NLX
Description: The final assay volume is 100 μl.
Compounds are tested in triplicate or quadruplicate.

mu opiate receptor (MOR) = biological target: T1, mu opiate receptor (MOR) (Rattus norvegicus, UniProt P33535); assay: [35S]GTPγS binding assay using striatal membranes (MOR agonist activity); format: biochemical; set-up: MOR agonist activity, [35S]GTPγS binding to Gαo, 0.1 μM / MOR agonist activity, [35S]GTPγS binding to Gαo, 1 μM / MOR agonist activity, [35S]GTPγS binding to Gαo, 1 μM + BFNA: reference not given here; conditions: for MOR agonist activity, [35S]GTPγS binding to Gαo, 0.1 μM: 0.1 μM compound; for MOR agonist activity, [35S]GTPγS binding to Gαo, 0.1 μM / MOR agonist activity, [35S]GTPγS binding to Gαo, 1 μM: striatal membranes; for MOR agonist activity, [35S]GTPγS binding to Gαo, 1 μM + BFNA: 1 μM compound + 1 μM β-funaltrexamine; for MOR agonist activity, [35S]GTPγS binding to Gαo, 1 μM: 1 μM compound
T1 construct: from tissue; host or cells: striatal tissue (membrane preparation)
T1 sequence (P33535 whole entry): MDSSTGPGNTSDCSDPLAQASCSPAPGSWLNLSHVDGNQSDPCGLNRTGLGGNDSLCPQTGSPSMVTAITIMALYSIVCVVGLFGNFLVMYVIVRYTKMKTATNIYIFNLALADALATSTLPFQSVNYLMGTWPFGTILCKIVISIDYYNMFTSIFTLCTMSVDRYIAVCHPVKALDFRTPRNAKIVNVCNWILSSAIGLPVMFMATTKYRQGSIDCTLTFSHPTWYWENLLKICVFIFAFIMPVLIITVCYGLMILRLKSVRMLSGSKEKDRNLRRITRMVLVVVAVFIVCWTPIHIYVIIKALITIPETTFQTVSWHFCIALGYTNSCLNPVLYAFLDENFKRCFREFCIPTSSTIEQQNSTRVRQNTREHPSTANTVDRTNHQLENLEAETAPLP
Description: To assess the mu opiate receptor (MOR) agonist activity of positive compounds from the FLNA screening, compounds were tested in a [^35S]GTPγS binding assay using striatal membranes. Our previous study has shown that in striatal membranes, activation of MOR leads to an increase in [^35S]GTPγS binding to Gαo (Wang et al., 2005 Neuroscience 135:247-261).
Striatal tissue was homogenized in 10 volumes of ice cold 25 mM HEPES buffer, pH 7.4, which contained 1 mM EGTA, 100 mM sucrose, 50 μg/ml leupeptin, 0.04 mM PMSF, 2 μg/ml soybean trypsin inhibitor and 0.2% 2-mercaptoethanol. The homogenates were centrifuged at 800×g for 5 minutes and the supernatants were centrifuged at 49,000×g for 20 minutes. The resulting pellets were suspended in 10 volume of reaction buffer, which contained 25 mM HEPES, pH 7.5, 100 mM NaCl, 50 μg/ml leupeptin, 2 μg/ml soybean trypsin inhibitor, 0.04 mM PMSF and 0.02% […].
The resultant striatal membrane preparation (200 μg) was admixed and maintained (incubated) at 30° C. for 5 minutes in reaction buffer as above that additionally contained 1 mM MgCl2 and 0.5 nM [^35S]GTPγS (0.1 μCi/assay, PerkinElmer Life and Analytical Sciences) in a total volume of 250 μl and continued for 5 minutes in the absence or presence of 0.1-10 μM of an assayed compound of interest. The reaction was terminated by dilution with 750 μl of ice-cold reaction buffer that contained 20 mM MgCl2 and 1 mM EGTA and immediate centrifugation at 16,000×g for 5 minutes.
The resulting pellet was solubilized by sonicating for 10 seconds in 0.5 ml of immunoprecipitation buffer containing 0.5% digitonin, 0.2% sodium cholate and 0.5% NP-40. Normal rabbit serum (1 μl) was added to 1 ml of lysate and incubated at 25° C. for 30 minutes. Nonspecific immune complexes were removed by incubation with 25 μl of protein A/G-conjugated agarose beads at 25° C. for 30 minutes followed by centrifugation at 5,000×g at 4° C. for 5 minutes. The supernatant was divided and separately incubated at 25° C. for 30 minutes with antibodies raised against Gαo proteins (1:1,000 dilutions).
The immunocomplexes so formed were collected by incubation at 25° C. for 30 minutes with 40 μl of agarose-conjugated protein A/G beads and centrifugation at 5,000×g at 4° C. for 5 minutes. The pellet was washed and suspended in buffer containing 50 mM Tris-HCl, pH 8.0, and 1% NP-40. The radioactivity in the suspension was determined by liquid scintillation spectrometry. […] DAMGO (H-Tyr-D-Ala-Gly-N-MePhe-Gly-OH; 1 or 10 μM) was used as a positive control.

Compound | Percent inhibition of FITC-NLX binding, 0.01 μM ([1]; 0.01 μM compound) | Percent inhibition of FITC-NLX binding, 0.1 μM ([1]; 0.1 μM compound) | Percent inhibition of FITC-NLX binding, 1 μM ([1]; 1 μM compound) | MOR agonist activity, [35S]GTPγS binding to Gαo, 0.1 μM (mu opiate receptor (MOR)) | MOR agonist activity, [35S]GTPγS binding to Gαo, 1 μM + BFNA (mu opiate receptor (MOR)) | MOR agonist activity, [35S]GTPγS binding to Gαo, 1 μM (mu opiate receptor (MOR)) | inhibition at 0.01 µM ([1]; read-out: Percent inhibition of FITC-NLX binding, 0.01 μM compound) | inhibition at 0.1 µM ([1]; read-out: Percent inhibition of FITC-NLX binding, 0.1 μM compound) | inhibition at 1 µM ([1]; read-out: Percent inhibition of FITC-NLX binding, 1 μM compound) | % DAMGO + BFNA (mu opiate receptor (MOR); 1 μM + BFNA, relative to DAMGO + BFNA)
COc1ccc(CC(=O)CC2c3c(cc4c(c3OC)OCO4)CC[N+]2(C)C)c(OC)c1 (stereo not shown) [B0029] | 33.4% | 42.9% | 50.2% | 171.9% | 17.6% | 210.3% |  |  |  | 
COc1ccccc1CCC(=O)CC1c2c(cc3c(c2OC)OCO3)CC[N+]1(C)C (stereo not shown) [B0045] | 63.2% | 68.2% | 73.9% | 129.3% | 83.8% | 193.1% |  |  |  | 
COc1ccc(CCC(=O)CC2c3c(cc4c(c3OC)OCO4)CCN2C)cc1 (stereo not shown) [B0047] |  |  |  | 187.8% | 68.4% | 235.6% |  |  |  | 
COc1ccc(C(=O)CC2c3c(cc4c(c3OC)OCO4)CC[N+]2(C)C)cc1C.[I-] (stereo not shown) [B0021] | 32.5% | 43.1% | 47.6% | 126.9% | 42.9% | 256.4% |  |  |  | 
COc1c2c(cc3c1C(CC(=O)Cc1ccccc1F)[N+](C)(C)CC3)OCO2.[I-] (stereo not shown) [B0055] |  |  |  | 162.1% | 117.5% | 338.5% |  |  |  | 
COc1cccc(OC)c1C(=O)CC1c2c(cc3c(c2OC)OCO3)CC[N+]1(C)C.[I-] (stereo not shown) [B0023] | 28.5% | 37.8% | 46.4% | 166.1% | 28.4% | 245.3% |  |  |  | 
COc1cc(CC(=O)CC2c3c(cc4c(c3OC)OCO4)CC[N+]2(C)C)cc(OC)c1OC (stereo not shown) [B0008] | 35.5% | 40.3% | 52.8% | 148.3% | 46.0% | 264.1% |  |  |  | 
COc1c2c(cc3c1C(CC(=O)Cc1ccccc1C)N(C)CC3)OCO2 (stereo not shown) [B0053] |  |  |  | 160.2% | 134.3% | 299.8% |  |  |  | 
COc1ccc(CCC(=O)CC2c3c(cc4c(c3OC)OCO4)CC[N+]2(C)C)c(OC)c1 (stereo not shown) [B0043] | 30.8% | 39.2% | 46.8% | 74.8% | 166.4% | 248.1% |  |  |  | 
COc1c2c(cc3c1C(CC(=O)CCc1ccc(O)cc1)[N+](C)(C)CC3)OCO2.[I-] (stereo not shown) [B0028] | 38.2% | 42.8% | 49.1% | 199.1% | 55.0% | 357.7% |  |  |  | 
COc1c2c(cc3c1C(CC(O)Cc1ccccc1C)N(C)CC3)OCO2 (stereo not shown) [B0054] |  |  |  | 157.8% | 111.0% | 186.7% | 25.6% | 32.6% | 43.3% | 
COc1c2c(cc3c1C(CC(=O)c1ccc(C#N)cc1)[N+](C)(C)CC3)OCO2 (stereo not shown) [B0001] |  |  |  | 128.2% | 28.0% | 202.3% |  |  |  | 
COc1c2c(cc3c1C(CC(=O)CCc1ccc(Cl)cc1)[N+](C)(C)CC3)OCO2 (stereo not shown) [B0017] | 28.3% | 36.6% | 44.6% | 99.6% | 49.6% | 122.0% |  |  |  | 
COc1cccc(CC(=O)CC2c3c(cc4c(c3OC)OCO4)CC[N+]2(C)C)c1OC (stereo not shown) [B0038] | 41.2% | 50.1% | 57.0% | 147.5% | 117.1% | 205.3% |  |  |  | 
COc1c2c(cc3c1C(CC(=O)/C=C/c1ccc(Cl)cc1)[N+](C)(C)CC3)OCO2 (stereo not shown) [B0019] | 34.3% | 41.0% | 49.0% | 101.0% | 81.4% | 256.5% |  |  |  | 
COc1ccc(CCC(=O)CC2c3c(cc4c(c3OC)OCO4)CC[N+]2(C)C)cc1OC.[I-] (stereo not shown) [B0042] | 40.8% | 46.4% | 51.6% | 69.9% | 43.1% | 107.5% |  |  |  | 
COc1ccc(CCC(=O)CC2c3c(cc4c(c3OC)OCO4)CC[N+]2(C)C)cc1 (stereo not shown) [B0016] |  |  |  | 167.7% | 72.2% | 213.6% |  |  |  | 
COc1cc(OC)cc(C(=O)CC2c3c(cc4c(c3OC)OCO4)CC[N+]2(C)C)c1.[I-] (stereo not shown) [B0035] | 45.4% | 44.7% | 51.0% | 188.0% | 74.2% | 248.7% |  |  |  | 
COc1ccc(CCCCC2c3c(cc4c(c3OC)OCO4)CC[N+]2(C)C)cc1 (stereo not shown) [B0056] |  |  |  | 174.7% | 41.8% | 288.8% |  |  |  | 
COc1c2c(cc3c1C(CC(=O)c1cccc(C(F)(F)F)c1)[N+](C)(C)CC3)OCO2 (stereo not shown) [B0006] |  |  |  | 77.0% | 18.6% | 131.3% |  |  |  | 
COc1cc(F)ccc1C(=O)CC1c2c(cc3c(c2OC)OCO3)CC[N+]1(C)C (stereo not shown) [B0007] |  |  |  | 168.3% | 64.5% | 223.3% |  |  |  | 
COc1c2c(cc3c1C(CC(=O)c1ccc(N4CCOCC4)cc1)[N+](C)(C)CC3)OCO2 (stereo not shown) [B0004] |  |  |  | 170.3% | 72.0% | 231.7% |  |  |  | 110.0%
